# Measurements: PubChem BioAssay (NCI)
# Where “and” joins values, the source holds several entries; their conditions need not be identical. Equal entries are not always repeated.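 How tested: cells in 96-well plates exposed to compound for 48 hours at five concentrations. GI50: concentration for 50% inhibition of growth. TGI is the concentration that stops growth completely.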
# Legend:
# Test in all cases: inhibition of tumour cell growth, NCI panel, 48 h
# SK-OV-3 ovarian = system: SK-OV-3 ovarian
# SF-268 CNS = system: SF-268 CNS
# DU-145 prostate = system: DU-145 prostate
# MDA-MB-435 = system: MDA-MB-435
# SNB-75 CNS = system: SNB-75 CNS
# HOP-92 NSCLC = system: HOP-92 NSCLC
# NCI-H23 lung = system: NCI-H23 lung
# NCI-H226 lung = system: NCI-H226 lung
# CAKI-1 renal = system: CAKI-1 renal
# LOX IMVI melanoma = system: LOX IMVI melanoma
Compound,GI50 (SK-OV-3 ovarian) [µM],TGI (SK-OV-3 ovarian) [µM],GI50 (SF-268 CNS) [µM],TGI (SF-268 CNS),GI50 (DU-145 prostate) [µM],TGI (DU-145 prostate) [µM],GI50 (MDA-MB-435) [µM],TGI (MDA-MB-435) [µM],GI50 (SNB-75 CNS) [µM],TGI (SNB-75 CNS) [µM],GI50 (HOP-92 NSCLC) [µM],TGI (HOP-92 NSCLC) [µM],GI50 (NCI-H23 lung) [µM],TGI (NCI-H23 lung),GI50 (NCI-H226 lung) [µM],TGI (NCI-H226 lung) [µM],GI50 (CAKI-1 renal) [µM],TGI (CAKI-1 renal) [µM],GI50 (LOX IMVI melanoma) [µM],TGI (LOX IMVI melanoma) [µM]
Cc1noc(C)c1-c1cnc2c(-c3ccc(C(=O)O)cc3)cn([C@@H](C)c3ccccn3)c2c1,0.635,32.5,9.04,> 100 µM,22.6,> 100,0.603,> 100,0.0376,2.47,0.212,> 100,3.32,> 100 µM,5.02,> 46.6,0.0745,> 83.6,0.315,7.73
O=C(CN(/C=C/C(=O)C(F)(F)F)c1ccccc1)c1ccc(Cl)cc1,36.4,> 100,18.9,38.8 µM,37.7,> 100,19.5,42.6,–,–,19.1,42.1,17.1,35.4 µM,18.1,33.1,17.8,42.5,16,32.6
CC[C@@H](O)C[C@H]1CCC[C@@]2(C[C@@H]3OC(=O)/C=C/[C@@](C)(O)[C@@H](O)[C@H](C)[C@@H](O)[C@H](OC4CCC(N(C)C)C(C)O4)[C@@H](O)[C@](C)(O)CCCCC/C=C/[C@@H]4CC(C)(C)O[C@@]4(O)C[C@H](O2)[C@H]3C)O1 (some centres undefined),–,29.1,–,35.2 µM,–,24.1,–,22.2,–,21.5,–,37.2,–,18.2 µM,–,29.6,–,20.2,–,9.46
CN(C)CCCCCNc1c2ccccc2nc2cccc([N+](=O)[O-])c12,–,> 0.0245,–,0.0125 µM and 0.018 µM,–,0.00346,–,0.000488,–,0.00534,–,0.00895,0.00162,0.00344 µM and 0.00234 µM,–,0.057,–,0.0158,–,0.0113
Cn1cc(C2=C(c3ccccc3C(F)(F)F)C(=O)NC2=O)c2ccccc21,10.2,> 25,11.4,> 25 µM,12.5,> 25,9.89,> 25,> 14,> 25,17.2,> 25,11.9,> 25 µM,7.07,> 24.2,6.6,> 25,8.46,> 25
COc1cc(-c2cc3ncccc3c3[nH]c(=O)c4cccnc4c23)cc(OC)c1OC,1.35,> 100,2.16,> 100 µM,0.907,> 100,0.181,> 100,0.271,62.9,12.2,> 100,2.3,> 100 µM,23.6,> 100,0.663,> 100,0.511,> 100
O=C(Nc1ccc2c(c1)OCCO2)C(=O)c1c[nH]c2ccccc12,1.5,8.62,1.98,37.5 µM,1.95,11.8,0.166,0.531,1.33,5.96,1.34,11.1,1.44,26.7 µM,5.03,61.3,1.68,> 100,1.3,> 100
